Test results taken from patent publication US5101072A, “Sulfonylhydrazines and their use as antineoplastic agents and as antitrypanosomal agents” (Yale University, priority 1989, dated 1992).
Blank lines part the entries; values can stand above or below the compound they belong to.

How the values were obtained:
[1] = system: T. rhodesiense (Y Tat 1.1); experiment: Survival time of CD-1 mice infected with T. rhodesiense (trypanocidal activity); type: in vivo, T. rhodesiense (Y Tat 1.1); CD-1 mice; details: for Mean Extension of Life (Table III): administered in 0.05 ml of DMSO, dose not given
Experimental: The trypanocidal properties of several methylating agents including MeSO2 N(Me)N(SO2 Me)2 and MeSO2 N(Me)N(Me)SO2 Me were determined by measuring their effects on the survival time of CD-1 mice infected with T. rhodesiense (Y Tat 1.1), a pleimorphic strain that produces a non-relapsing disease in mice. The level of parasites in the bloodstream and body fluids increases by approximately 10-fold per day and the animals die when the parasite burden exceeds 1 to 2×10^9 cells/ml. Infection with a single viable parasite will kill a mouse in approximately 9 to 10 days.
Mice were infected ip with approximately 10^6 trypanosomes/mouse in phosphate buffered saline containing glucose. This level of parasites produces death in 4 days post-infection. These mice were treated (ip) with a single dose of drug dissolved in the appropriate vehicle 3 days after infection, when the parasitemia was 1 to 3×10^8 cells/ml of blood and the mice, if untreated, would survive for only 24 additional hours. The number of days the mice survived beyond that of the untreated controls was used as a measure of trypanocidal activity. The level of parasitemia in treated mice was measured at regular intervals to distinguish between parasite-related and drug toxicity-related deaths. No toxic deaths were observed. Mice that survived for 30 days without detectable parasitemias were considered cured. The effects of a single dose of various methylating agents on the survival time of trypanosome-bearing mice are summarized in Table II.
^a Drug that was administered was dissolved in 0.5 ml of phosphate
buffered saline containing glucose.
^b Drug that was administered was dissolved in 0.05 ml of DMSO.

L1210 leukemia = experiment: Survival time of mice bearing the L1210 leukemia; type: in vivo; details: for 60-day cures, % / % T/C (average survival time of treated/control animals × 100): L1210, at optimum effective daily dose, once daily × 6 days
Experimental: The tumor-inhibitory properties of several compounds, e.g., 1,2-bis(methylsulfonyl)-1-methylhydrazine, 1-methyl-1,2,2-tris(methylsulfonyl)hydrazine, 1,2-bis(methylsulfonyl)-1,2-dimethylhydrazine and 1-(2-chloroethyl)-1,2,2-tris(methylsulfonyl)hydrazine were determined by measuring the effects of these agents on the survival time of mice bearing the L1210 leukemia as described by K. Shyam, L. A. Cosby, and A. C. Sartorelli, J. Med. Chem., 28, 525-527 (1985).
^a Administered once daily for 6 consecutive days, beginning 24 hours
after tumor transplantation with 5-10 animals being used per group.
^b Average change in body weight from onset to termination of therapy
(§1) ^c % T/C = average survival time of treated/control animals ×

Lethality in normal mice = type: in vivo
Experimental: A single intraperitoneal dose of 1.2 g/kg or six daily intraperitoneal doses of 200 mg/kg of MeSO2 N(CH2 CH2 Cl)N(SO2 Me)2 produced no lethality in normal mice. Thus, the relatively great efficacy of this compound against the L1210 and P-388 leukemias and its relative lack of toxicity makes it an agent of significant promise.

P388 leukemia = experiment: % T/C and 60-day cures vs. P388 leukemia; type: in vivo, mice; details: 60 mg/kg/day
Experimental: as §1
^d % T/C vs. P388 leukemia = 218 (80% 60day cures) at 60 mg/kg/day

[2] = Methanol generation in vitro (spontaneous breakdown to generate reactive methyl groups); type: physicochemical; details: relative; PhSO2 N(Me)NHSO2 Ph = 1.0
Experimental: (§2) The reaction of 1,2-bis(sulfonyl)-1-methylhydrazine with water at pH 7.4-7.6 at 37° C. can be followed by proton release and/or methanol generation. Methanol generation can be assayed using alcohol oxidase and measuring the resultant O2 consumption using a Gilson oxygraph. This assay can be calibrated using methanol standards. The reaction of 1,2-bis(sulfonyl)-1-methylhydrazine with water is relatively fast [a 50 μM solution of 1,2-bis(methylsulfonyl)-1-methylhydrazine decomposes at an initial rate of 12-15% per minute in phosphate buffered saline (pH 7.6) at 37° C.] compared to the hydroylsis of 1,2,2-tris(methylsulfonyl)-1-methylhydrazine. RSO2 N=NMe may also decompose by a free radical mechanism to a smaller extent and methylate by the generation of methyl radicals.
Methanol was produced by these agents in aqueous solutions free from strong competing nucleophiles. Formation of this alcohol was used as a measure of the rate of spontaneous breakdown of these compounds to generate reactive methyl groups. […] These findings provide strong evidence that methylation is essential for the observed biological activity of these compounds.

[3] = Hydrolysis / decomposition in aqueous solution; type: physicochemical; details: 50 μM solution, phosphate buffered saline (pH 7.6), 37° C.
Experimental: In the case of 1,2,2-tris(methylsulfonyl)-1-methylhydrazine, this reaction occurs slowly. A 50 μM solution of this compound hydrolyzes at an initial rate of 1% per minute in phosphate buffered saline (pH 7.6) at 37° C.
Hydrolysis is expected to occur preferentially at N-2 to generate the 1,2-bis(sulfonyl)-1-methylhydrazine. The sulfonic acid and 1,2-bis(sulfonyl)-1-methylhydrazine that are generated are both ionized under these conditions. The release of protons can be used to follow the decomposition of these and related compounds. The release of protons can be assayed by following the decrease in absorbance at 560 nm of a weakly buffered (1 mM potassium phosphate) phenol red (21 mg/l) solution; initial pH 7.6 at 37° C. The assay can be calibrated using HCl standards.
as §2

T. rhodesiense = experiment: Oral trypanocidal activity (preliminary); type: in vivo, T. rhodesiense; mice; details: aqueous solutions, preliminary results
Source text: Orally active trypanocidal agents are desirable since, in areas where trypanosomiasis is endemic, other routes of drug administration frequently present problems.

[4] = single ip dose 0.2 mmol/kg in 0.5 ml phosphate buffered saline containing glucose
[5] = single ip dose 0.2 mmol/kg in 0.05 ml of DMSO
[6] = mice bearing L1210, at optimum effective daily dose

SMILES: CN(N=O)C(=O)N[C@H]1C(O)O[C@H](CO)[C@@H](O)[C@@H]1O (some centres unmarked) [Streptozotocin, streptozotocin]
Mean Extension of Life [1, 4]: 4.3 days

SMILES: CN(N=O)C(N)=O [N-Methyl-N-nitrosourea]
Mean Extension of Life [1, 5]: 8.0 days

SMILES: CS(=O)(=O)N(CCCl)N(S(C)(=O)=O)S(C)(=O)=O [MeSO2 N(CH2 CH2 Cl)N(SO2 Me)2, 1-(2-chloroethyl)-1,2,2-tris(methylsulfonyl)hydrazine]
60-day "cures" of the L1210 leukemia (L1210 leukemia; 40 and 60 mg/kg per day×6): 60-day "cures" of the L1210 leukemia | 60-day cures, % (L1210 leukemia): 100% | AvΔ Wt, % (average change in body weight from onset to termination of therapy) (L1210 leukemia; [6]): -7.2% | Activity against the L1210 leukemia (in words) (L1210 leukemia; mouse, in vivo): exceedingly active | Lethality in normal mice (Lethality in normal mice; single intraperitoneal dose of 1.2 g/kg): no lethality | Lethality in normal mice (Lethality in normal mice; six daily intraperitoneal doses of 200 mg/kg): no lethality | 60-day cures vs. P388 leukemia (P388 leukemia): 80% | % T/C vs. P388 leukemia (P388 leukemia): 218%

SMILES: CS(=O)(=O)N(N(CCCl)S(=O)(=O)c1ccc(Cl)cc1)S(C)(=O)=O [Cl-4-C6 H4 SO2 N(CH2 CH2 Cl)N(SO2 Me)2, 2,2-Bis(methylsulfonyl)-1-(2-chloroethyl)-1-[(4-chlorophenyl)sulfonyl]hydrazine]
60-day cures, % (L1210 leukemia): 60% | % T/C (average survival time of treated/control animals × 100) (L1210 leukemia): 203% | AvΔ Wt, % (average change in body weight from onset to termination of therapy) (L1210 leukemia; [6]): -3.4%

Relative Methanol Generation in vitro [2]: 1.0
SMILES: CN(NS(=O)(=O)c1ccccc1)S(=O)(=O)c1ccccc1 [PhSO2 N(Me)NHSO2 Ph]
Mean Extension of Life (Table III) [1]: 5 days | Mean Extension of Life [1, 5]: 5.0 days

SMILES: CN(N(S(C)(=O)=O)S(C)(=O)=O)S(C)(=O)=O [MeSO2 N(Me)N(SO2 Me)2, 1-Methyl-1,2,2-tris(methylsulfonyl)hydrazine]
60-day cures, % (L1210 leukemia): 0% | % T/C (average survival time of treated/control animals × 100) (L1210 leukemia): 186% | AvΔ Wt, % (average change in body weight from onset to termination of therapy) (L1210 leukemia; mouse, in vivo): -7.7% | Initial rate of hydrolysis / decomposition [3]: 1 % per minute | Trypanocidal activity on oral administration compared with Table II (T. rhodesiense): comparable activity to that reported in Table II | Mean Extension of Life [1, 5]: 7.7 days | cure (30 days without detectable parasitemias) ([1]; single ip dose 1.0 mmol/kg in 0.05 ml of DMSO): 100%

SMILES: CN(C)N=Nc1[nH]cnc1C(N)=O [DTIC, 5-(3,3-dimethyl-1-triazenyl)-1H-imidazole-4-carboxamide]
Mean Extension of Life [1, 4]: 6.0 days

SMILES: CN(N(C)S(C)(=O)=O)S(C)(=O)=O [MeSO2 N(Me)N(Me)SO2 Me, 1,2-Bis(methylsulfonyl)-1,2-dimethylhydrazine]
60-day cures, % (L1210 leukemia): 0% | % T/C (average survival time of treated/control animals × 100) (L1210 leukemia): 158% | AvΔ Wt, % (average change in body weight from onset to termination of therapy) (L1210 leukemia; mouse, in vivo): -11.3% | Trypanocidal activity on oral administration compared with Table II (T. rhodesiense): comparable activity to that reported in Table II | cure (30 days without detectable parasitemias) [1, 5]: 25% | Mean Extension of Life for relapsing animals ([1]; single ip dose 0.2 mmol/kg in 0.05 ml of DMSO, relapsing animals): 9.7 days

Relative Methanol Generation in vitro [2]: 0
SMILES: O=S(=O)(NNS(=O)(=O)c1ccccc1)c1ccccc1 [PhSO2 NHNHSO2 Ph]
Mean Extension of Life (Table III) [1]: 0 days

SMILES: COc1ccc(S(=O)(=O)NN(C)S(C)(=O)=O)cc1 [MeSO2 N(Me)NHSO2 C6 H4 -p-OMe]
Mean Extension of Life [1, 5]: 4.5 days

SMILES: CCOS(=O)(=O)OCC [Et2 SO4]
Mean Extension of Life [1, 5]: 0 days

SMILES: CCNNCC [EtNHNHEt]
Mean Extension of Life [1, 4]: 0 days

SMILES: CNNC [MeNHNHMe, 1,2-dimethylhydrazine]
Mean Extension of Life [1, 4]: 4.3 days

SMILES: CNNCc1ccc(C(=O)NC(C)C)cc1 [Procarbazine, procarbazine]
Mean Extension of Life [1, 4]: 5.0 days

SMILES: COS(C)(=O)=O [MeSO2 OMe]
Mean Extension of Life [1, 5]: 1.0 days

SMILES: Cc1ccc(S(=O)(=O)N(CCCl)N(S(C)(=O)=O)S(C)(=O)=O)cc1 [Me-4-C6 H 4 SO2 N(CH2 CH2 Cl)N(SO2 Me)2, 2,2-bis(methylsulfonyl)-1-(2-chloroethyl)-1-(4-toluenesulfonyl)hydrazine]
60-day cures, % (L1210 leukemia): 60% | % T/C (average survival time of treated/control animals × 100) (L1210 leukemia): 215% | AvΔ Wt, % (average change in body weight from onset to termination of therapy) (L1210 leukemia; [6]): -12.0%

SMILES: COc1ccc(S(=O)(=O)N(CCCl)N(S(C)(=O)=O)S(C)(=O)=O)cc1 [MeO-4-C6 H4 SO2 N(CH2 CH2 Cl)N(SO2 Me)2, 2,2-Bis(methylsulfonyl)-1-(2-chloroethyl)-1-[(4-methoxyphenyl)sulfonyl]hydrazine]
60-day cures, % (L1210 leukemia): 100% | AvΔ Wt, % (average change in body weight from onset to termination of therapy) (L1210 leukemia; [6]): +5.9%

SMILES: CS(=O)(=O)N(CCI)N(S(C)(=O)=O)S(C)(=O)=O [MeSO2 N(CH2 CH2 I)N(SO2 Me)2, 1-(2-iodoethyl)-1,2,2-tris(methylsulfonyl)hydrazine]
60-day cures, % (L1210 leukemia): 0% | % T/C (average survival time of treated/control animals × 100) (L1210 leukemia): 110% | AvΔ Wt, % (average change in body weight from onset to termination of therapy) (L1210 leukemia; [6]): +8.0%

SMILES: CS(=O)(=O)N(N(CCCl)S(=O)(=O)c1ccc(Br)cc1)S(C)(=O)=O [Br-4-C6 H4 SO2 N(CH2 CH2 Cl)N(SO2 Me)2, 2,2-Bis(methylsulfonyl)-1-[(4-bromophenyl)sulfonyl]-1-(2-chloroethyl)hydrazine]
60-day cures, % (L1210 leukemia): 60% | % T/C (average survival time of treated/control animals × 100) (L1210 leukemia): 241% | AvΔ Wt, % (average change in body weight from onset to termination of therapy) (L1210 leukemia; [6]): +0.9%

SMILES: CS(=O)(=O)N(N(CCCl)S(=O)(=O)c1ccccc1)S(C)(=O)=O [C6 H5 SO2 N(CH2 CH2 Cl)N(SO2 Me)2, 2,2-bis(methylsulfonyl)-1-(2-chloroethyl)-1-phenylsulfonylhydrazine]
60-day cures, % (L1210 leukemia): 40% | % T/C (average survival time of treated/control animals × 100) (L1210 leukemia): 187% | AvΔ Wt, % (average change in body weight from onset to termination of therapy) (L1210 leukemia; [6]): +0.5%

Relative Methanol Generation in vitro [2]: 0
SMILES: CN(NC(=O)c1ccccc1)C(=O)c1ccccc1 [PhCON(Me)NHCOPh]
Mean Extension of Life (Table III) [1]: 0 days

SMILES: CS(=O)(=O)OCCN(N(S(C)(=O)=O)S(C)(=O)=O)S(C)(=O)=O [MeSO2 N(CH2 CH2 OSO2 Me)N(SO2 Me)2, 1-(2-methylsulfonyloxy)ethyl-1,2,2-tris(methylsulfonyl)hydrazine]
60-day cures, % (L1210 leukemia): 0% | % T/C (average survival time of treated/control animals × 100) (L1210 leukemia): 198% | AvΔ Wt, % (average change in body weight from onset to termination of therapy) (L1210 leukemia; mouse, in vivo): -4.2%

SMILES: CS(=O)(=O)N(CCBr)N(S(C)(=O)=O)S(C)(=O)=O [MeSO2 N(CH2 CH2 Br)N(SO2 Me)2, 1-(2-bromoethyl)-1,2,2-tris(methylsulfonyl)hydrazine]
60-day cures, % (L1210 leukemia): 0% | % T/C (average survival time of treated/control animals × 100) (L1210 leukemia): 213% | AvΔ Wt, % (average change in body weight from onset to termination of therapy) (L1210 leukemia; [6]): -2.0%

SMILES: CNN [MeNHNH2, methylhydrazine]
Mean Extension of Life ([1]; single ip dose 0.5 mmol/kg in 0.5 ml phosphate buffered saline containing glucose): 1 days

SMILES: COS(=O)(=O)OC [Me2 SO4]
Mean Extension of Life [1, 5]: 3.0 days
